The target of test [1] is T1, Indoleamine 2,3-dioxygenase 1 (Homo sapiens, UniProt P14902). Put plainly: Inhibition of N-terminal His-tagged recombinant human IDO1 extracted from Escherichia coli Transetta (DE3) using L-tryptophan as substrate preincubated for 5 mins followed by substrate addition and measured after 1 hrs by absorbance based microplate reader.
Target sequence in this assay (P14902 whole entry): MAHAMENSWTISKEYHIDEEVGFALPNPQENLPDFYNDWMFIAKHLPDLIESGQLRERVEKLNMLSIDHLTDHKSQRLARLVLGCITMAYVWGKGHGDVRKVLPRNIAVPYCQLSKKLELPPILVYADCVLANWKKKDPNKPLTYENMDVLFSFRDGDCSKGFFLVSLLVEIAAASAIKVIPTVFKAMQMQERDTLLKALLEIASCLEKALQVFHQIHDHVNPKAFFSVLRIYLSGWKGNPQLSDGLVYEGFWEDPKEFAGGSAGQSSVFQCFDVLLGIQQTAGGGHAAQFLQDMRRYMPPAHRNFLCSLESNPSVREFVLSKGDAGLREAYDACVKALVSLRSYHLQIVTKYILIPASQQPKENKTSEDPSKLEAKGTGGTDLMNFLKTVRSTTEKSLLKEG
Test [2] has as its target T2, Tryptophan 2,3-dioxygenase (Homo sapiens, UniProt P48775).
Target sequence in this assay (P48775 whole entry): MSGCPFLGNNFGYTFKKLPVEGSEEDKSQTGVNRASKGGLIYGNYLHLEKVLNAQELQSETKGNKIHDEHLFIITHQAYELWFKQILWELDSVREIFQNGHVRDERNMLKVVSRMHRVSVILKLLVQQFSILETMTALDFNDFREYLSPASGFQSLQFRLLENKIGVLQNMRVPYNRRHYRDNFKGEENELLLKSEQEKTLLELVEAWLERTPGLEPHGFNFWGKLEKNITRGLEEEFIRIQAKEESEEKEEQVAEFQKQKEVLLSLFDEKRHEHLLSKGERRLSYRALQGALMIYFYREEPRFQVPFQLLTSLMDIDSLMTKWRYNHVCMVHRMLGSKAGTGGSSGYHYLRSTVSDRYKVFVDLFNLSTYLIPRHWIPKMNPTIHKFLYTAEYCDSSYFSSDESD
In test [3] the target is T2, Tryptophan 2,3-dioxygenase. The source holds these as a separate data set.
Target sequence in this assay (P48775 whole entry): as above
Test [4] has as its target T1, Indoleamine 2,3-dioxygenase 1. The experiment in a line: Inhibition of IDO1 in IFN-gamma induced human HeLa cells using L-tryptophan as substrate incubated for 24 hrs by absorbance based microplate analysis. It counts as cell-based.
Target sequence in this assay (P14902 whole entry): as the sequence (P14902 whole entry) above
Test [5] concerns the target T2, Tryptophan 2,3-dioxygenase. Put plainly: Inhibition of TDO (unknown origin).
Test [6] deals with T1, Indoleamine 2,3-dioxygenase 1. The experiment in a line: Inhibition of IDO1 (unknown origin).

The source made the active and inactive calls. The rule behind the calls is not given here. A value given as a limit tells only on which side of the number the result lay.

For `COc1ccc(-c2ccc3c(O)c(OC)ccc3n2)cc1`, the IC50 in test [1] and in test [2] was over 100 µM each time.

In the case of `COc1ccc2cc(-c3ccc(NC(C)=O)cc3)ncc2c1O`, the IC50 (usually the concentration needed to halve the response being measured) in test [3] was over 30 µM; in test [1] it was 2.11 µM; in test [2] it was 0.35 µM; in test [4], over 30 µM.

For `Oc1ccc2cc(-c3ccc4c(c3)OCO4)ncc2c1`, the IC50 in test [1] and in test [2] was over 100 µM in each case.

`COc1ccc(-c2cc3ccc(OC)c(O)c3cn2)cc1`: the IC50 in test [3] is over 30 µM; in test [1] it was 0.71 µM; in test [2] it was 0.45 µM; in test [4], 15.8 µM.

On to `COc1ccc2cc(-c3ccc(NC(=O)C(C)(C)C)cc3)ncc2c1O`, for which the IC50 in test [1] worked out at 2.81 µM; in test [2], 1.2 µM.

On to `COc1ccc2cc(-c3ccc(F)cc3)ncc2c1OC`, for which the IC50 is 42.6 µM in test [1] and 9.08 µM in test [2].

On to `COc1ccc2cc(-c3cccs3)ncc2c1O`, for which the IC50 in test [1] turned out to be 21 µM; in test [2], 1.02 µM.

With `COc1ccc2cc(-c3ccc(NC(=O)c4ccccc4)cc3)ncc2c1O`, the IC50 in test [3] is 14.6 µM; in test [1], 4.45 µM; in test [2] it was 0.19 µM; in test [4], over 30 µM.

As to `COc1ccc2nc(-c3ccccc3)ncc2c1O`, the IC50 in test [1] and in test [2] was over 100 µM in each case.

In the case of `COc1ccc2cc(-c3ccc(F)cc3)ncc2c1O`, the IC50 was over 100 µM in test [1] and 51 µM in test [2].

For the compound `COc1ccc2nc(-c3ccccc3)ccc2c1O`, the IC50 is over 100 µM in test [1] and 5.6 µM in test [2].

On to `COc1ccc2cc(-c3ccc(NC(=O)c4ccc(C)cc4)cc3)ncc2c1O`, for which the IC50 in test [1] is over 100 µM; in test [2] it was 45.3 µM.

Turning to `COc1ccc2cc(-c3ccc(NC(=O)c4ccc(F)cc4)cc3)ncc2c1O`, the concentration for half-maximal inhibition (IC50) in test [1] and in test [2] was over 100 µM each time.

Regarding `COc1ccc2cc(-c3cccs3)ncc2c1OC`, the IC50 in test [1] turned out to be 11.2 µM; in test [2], 2.9 µM.

For the compound `COc1ccc2cc(-c3ccc(NC(=O)Nc4ccccc4)cc3)ncc2c1O`, the results for the IC50 in test [1] and in test [2] were 50.5 µM and 14.3 µM, respectively.

Take `COc1ccc2cc(-c3cccnc3)ncc2c1OC`: the IC50 in test [1] and in test [2] was over 100 µM each time.

For the compound `COc1ccc2cc3[n+](cc2c1OC)CCc1cc2c(cc1-3)OCO2` [BERBERINE], the IC50 was determined as 0.03 µM in test [5] and 0.26 µM in test [6].

As for `COc1ccc2cc(-c3ccccc3)ncc2c1O`, the IC50 was determined as 24 µM in test [3], 0.89 µM in test [1], 0.24 µM in test [2] and 17.1 µM in test [4].

With `COc1ccc2cc(-c3ccc(NC(=O)C(F)(F)F)cc3)ncc2c1O`, the values for the IC50 in test [1] and in test [2] were 6.13 µM and 1.16 µM, respectively.

`COc1ccc2cc(-c3ccc(C(F)(F)F)cc3)ncc2c1O`: the IC50 in test [1] came out at 15.3 µM; in test [2] it was 7.28 µM.

With `COc1ccc2cc(-c3cc4ccccc4o3)ncc2c1OC`, the IC50 in test [1] and in test [2] was over 100 µM throughout.

On to `COc1ccc2cc(-c3ccc(Br)cc3)ncc2c1OC`, for which the IC50 in test [1] was determined as 78.6 µM; in test [2] it was 34.3 µM.

For `COc1ccc2cc(-c3ccc(C)cc3)ncc2c1O`, the IC50 in test [1] and in test [2] was over 100 µM in each case.

Consider `COc1ccc(-c2ncc3c(O)c(OC)ccc3n2)cc1`, for which the half-maximal inhibitory concentration (IC50) in test [1] and in test [2] was over 100 µM each time.

For `COc1ccc2cc(-c3ccc4c(c3)OCO4)ncc2c1O`, the IC50 in test [3] is 25.8 µM; in test [1], 5.1 µM; in test [2], 0.28 µM; in test [4], over 30 µM.

For the compound `Oc1cccc2cc(-c3ccccc3)ncc12`, the results for the IC50 in test [1] and in test [2] were 70.5 µM and 25 µM, respectively.

For the compound `COc1ccc(-c2cc3ccc(OC)c(OC)c3cn2)cc1`, the results for the IC50 in test [1] and in test [2] were 11.1 µM and 2.72 µM, respectively.

On to `COc1ccc2cc(-c3ccccc3)ncc2c1OC`, for which the IC50 in test [3] was over 30 µM; in test [1], 7.81 µM; in test [2] it was 0.34 µM; in test [4], over 30 µM.

In the case of `COc1ccc2cc(-c3ccc(NS(=O)(=O)C4CC4)cc3)ncc2c1O`, the IC50 is 4.54 µM in test [1] and 3.36 µM in test [2].

Consider `COc1ccc2cc3[n+](cc2c1O)CCc1cc2c(cc1-3)OCO2`, for which the inhibition entry in test [5] and in test [6] was “Active” each time.

For `COc1cccc(C(=O)Nc2ccc(-c3cc4ccc(OC)c(O)c4cn3)cc2)c1`, the 50% inhibitory concentration (IC50) in test [1] worked out at 14.2 µM; in test [2] it was 4.08 µM.

For `COc1ccc2cc(-c3ccc(NS(C)(=O)=O)cc3)ncc2c1O`, the IC50 amounted to 14.8 µM in test [3], 1.24 µM in test [1], 0.2 µM in test [2] and 23 µM in test [4].

Take `COc1ccc2cc(-c3ccc(C(C)(C)C)cc3)ncc2c1OC`: the IC50 was over 100 µM in test [1] and 23.1 µM in test [2].

As to `COc1ccc2cc(-c3ccc(C(=O)Nc4ccccc4)cc3)ncc2c1O`, the IC50 in test [3] was 22.3 µM; in test [1], 10.1 µM; in test [2], 0.25 µM; in test [4] it was over 30 µM.

Consider `COc1ccc2cc(C34C[C@H]5C[C@@H](C3)C[C@@H](C4)C5)ncc2c1OC`, for which the figures for the half-maximal inhibitory concentration (IC50) in test [1] and in test [2] were 17.8 µM and 2.64 µM, respectively.

Turning to `COc1ccc2cc(-c3ccc4ncsc4c3)ncc2c1OC`, the 50% inhibitory concentration (IC50) in test [1] and in test [2] was over 100 µM each time.

As for `COc1ccc2cc(-c3ccc(NS(=O)(=O)N4CCCCC4)cc3)ncc2c1O`, the IC50 was 15.4 µM in test [1] and 7.97 µM in test [2].

Consider `COc1ccc2cc(-c3ccc(C)cc3)ncc2c1OC`, for which the IC50 in test [1] and in test [2] was over 100 µM in each case.

Consider `COc1ccc2cc(-c3ccc(NC(=O)c4ccc(C(F)(F)F)cc4)cc3)ncc2c1O`, for which the IC50 in test [1] was over 100 µM; in test [2], 3.25 µM.
